Experimental data taken from ChEMBL document CHEMBL1697731, “Cheminformatics analysis of assertions mined from literature that describe drug-induced liver injury in different species” (Chem Res Toxicol, 2010).
*1 amine or outer side, *2 acyl side, *3 side chain or, on linkers, in order; H or OH if unused. Where a SMILES comes first, the peptide text is derived from it. Bridges are numbered along the chain shown (N, C = ends). Roman numbers before positions name the chains, in order. [ ]: non-standard residue; d: D form. Actinocin(9to1) = Cc1c2oc3c(C)ccc(C(=O)[*:1])c3nc-2c(C(=O)[*:2])c(N)c1=O; NMeV = CN[C@H](C(=O)O)C(C)C; Sar = CNCC(=O)O

Experiments:
Hepatotoxicity [1] = test: Literature-mined compound from Fourches et al multi-species drug-induced liver injury (DILI) dataset, effect in humans; settings: human
Hepatotoxicity [2] = test: Literature-mined compound from Fourches et al multi-species drug-induced liver injury (DILI) dataset, effect in rodents; settings: rodentia
Hepatotoxicity [3] = test: Literature-mined compound from Fourches et al multi-species drug-induced liver injury (DILI) dataset, effect in non-rodents

Row | Molecule | Hepatotoxicity (Hepatotoxicity [1]; Liver) | Hepatotoxicity (Hepatotoxicity [2]; Liver) | Hepatotoxicity (Hepatotoxicity [3]; Liver) | Hepatotoxicity (Hepatotoxicity [1]) | Hepatotoxicity (Hepatotoxicity [2]) | Hepatotoxicity (Hepatotoxicity [3])
1 | Nc1ccc(S(N)(=O)=O)cc1 [SULFANILAMIDE] | drug-induced liver injury reported | no drug-induced liver injury reported | no drug-induced liver injury reported | – | – | –
2 | Oc1ccccc1 [PHENOL] | drug-induced liver injury reported | drug-induced liver injury reported | no drug-induced liver injury reported | – | – | –
3 | CC1(C)CC(=O)N(CCCCN2CCN(c3ncccn3)CC2)C(=O)C1 [GEPIRONE] | – | – | – | drug-induced liver injury reported | no drug-induced liver injury reported | no drug-induced liver injury reported
4 | Cc1c2oc3c(C)ccc(C(=O)N[C@@H]4C(=O)N[C@H](C(C)C)C(=O)N5CCC[C@H]5C(=O)N(C)CC(=O)N(C)[C@@H](C(C)C)C(=O)O[C@@H]4C)c3nc-2c(C(=O)N[C@@H]2C(=O)N[C@H](C(C)C)C(=O)N3CCC[C@H]3C(=O)N(C)CC(=O)N(C)[C@@H](C(C)C)C(=O)O[C@@H]2C)c(N)c1=O [DACTINOMYCIN] (I: T[dV]P[Sar][NMeV] / II: T[dV]P[Sar][NMeV]; ester I:1-I:C, II:1-II:C; linker I:N-II:N via Actinocin(9to1)) | – | – | – | drug-induced liver injury reported | drug-induced liver injury reported | drug-induced liver injury reported
5 | O=c1[nH]c(=O)n(C2CCCO2)cc1F (stereo not given) [TEGAFUR] | – | – | – | drug-induced liver injury reported | no drug-induced liver injury reported | no drug-induced liver injury reported
6 | Cc1nccn1CC1CCc2c(c3ccccc3n2C)C1=O (stereo not given) [ONDANSETRON] | – | – | – | drug-induced liver injury reported | no drug-induced liver injury reported | no drug-induced liver injury reported
7 | CC(C)OC(=O)C(C)(C)Oc1ccc(C(=O)c2ccc(Cl)cc2)cc1 [FENOFIBRATE] | – | – | – | drug-induced liver injury reported | drug-induced liver injury reported | no drug-induced liver injury reported
8 | c1ccc([C@H]2CN3CCSC3=N2)cc1 [LEVAMISOLE] | drug-induced liver injury reported | drug-induced liver injury reported | no drug-induced liver injury reported | – | – | –
9 | GADOBENATE DIMEGLUMINE | – | – | – | drug-induced liver injury reported | no drug-induced liver injury reported | no drug-induced liver injury reported
10 | CC[C@@]1([C@H]2O[C@H]([C@H]3O[C@@](O)(CO)[C@H](C)C[C@@H]3C)C[C@H]2C)CC[C@H]([C@@]2(C)CC[C@]3(C[C@H](O)[C@@H](C)[C@@H]([C@H](C)[C@H](OC)[C@@H](C)C(=O)[O-])O3)O2)O1.[Na+] [MONENSIN SODIUM] | – | – | – | no drug-induced liver injury reported | drug-induced liver injury reported | no drug-induced liver injury reported
11 | COc1ccnc(C[S+]([O-])c2nc3ccc(OC(F)F)cc3[nH]2)c1OC (stereo not given) [PANTOPRAZOLE] | – | – | – | drug-induced liver injury reported | no drug-induced liver injury reported | no drug-induced liver injury reported
12 | C=CCN1CC[C@]23c4c5ccc(O)c4O[C@H]2[C@@H](O)C=C[C@H]3[C@H]1C5 [NALORPHINE] | – | – | – | no drug-induced liver injury reported | drug-induced liver injury reported | no drug-induced liver injury reported
13 | COc1ccc2cc([C@H](C)C(=O)O)ccc2c1 [NAPROXEN] | drug-induced liver injury reported | drug-induced liver injury reported | no drug-induced liver injury reported | – | – | –
14 | CC(=O)OCC(=O)[C@@]1(O)CC[C@H]2[C@@H]3CCC4=CC(=O)CC[C@]4(C)[C@H]3C(=O)C[C@@]21C [CORTISONE ACETATE] | – | – | – | no drug-induced liver injury reported | drug-induced liver injury reported | no drug-induced liver injury reported
15 | O=C1CC2(CCCC2)CC(=O)N1CCCCN1CCN(c2ncccn2)CC1 [BUSPIRONE] | – | – | – | drug-induced liver injury reported | no drug-induced liver injury reported | no drug-induced liver injury reported
16 | Cc1ccc(C(=O)Nc2ccc(S(=O)(=O)O)c3cc(S(=O)(=O)O)cc(S(=O)(=O)O)c23)cc1NC(=O)c1cccc(NC(=O)Nc2cccc(C(=O)Nc3cc(C(=O)Nc4ccc(S(=O)(=O)O)c5cc(S(=O)(=O)O)cc(S(=O)(=O)O)c45)ccc3C)c2)c1 [SURAMIN] | – | – | – | drug-induced liver injury reported | drug-induced liver injury reported | drug-induced liver injury reported
17 | COc1cc2c(cc1OC)C1CC(=O)C(CC(C)C)CN1CC2 (stereo not given) [TETRABENAZINE] | – | – | – | drug-induced liver injury reported | no drug-induced liver injury reported | no drug-induced liver injury reported
18 | IVERMECTIN | – | – | – | drug-induced liver injury reported | no drug-induced liver injury reported | no drug-induced liver injury reported

Row | Molecule | Hepatotoxicity (Hepatotoxicity [1]; Liver) | Hepatotoxicity (Hepatotoxicity [2]; Liver) | Hepatotoxicity (Hepatotoxicity [3]; Liver) | Hepatotoxicity (Hepatotoxicity [1]) | Hepatotoxicity (Hepatotoxicity [2]) | Hepatotoxicity (Hepatotoxicity [3])
19 | CC(CCc1ccccc1)NCC(O)c1ccc(O)c(C(N)=O)c1 (stereo not given) [LABETALOL] | – | – | – | drug-induced liver injury reported | no drug-induced liver injury reported | no drug-induced liver injury reported
20 | O=C(c1ccc(F)cc1)C1CCN(CCn2c(=O)[nH]c3ccccc3c2=O)CC1 [KETANSERIN] | – | – | – | drug-induced liver injury reported | drug-induced liver injury reported | no drug-induced liver injury reported
21 | CCCCC[C@H](O)/C=C/[C@@H]1[C@H]2C/C(=C/CCCC(=O)[O-])O[C@H]2C[C@H]1O.[Na+] [EPOPROSTENOL SODIUM] | – | – | – | no drug-induced liver injury reported | drug-induced liver injury reported | no drug-induced liver injury reported
22 | COc1cc2nc(N(C)CCCNC(=O)C3CCCO3)nc(N)c2cc1OC (stereo not given) [ALFUZOSIN] | – | – | – | drug-induced liver injury reported | no drug-induced liver injury reported | no drug-induced liver injury reported
23 | COC1=C(OC)C(=O)C(C/C=C(\C)CC/C=C(\C)CC/C=C(\C)CC/C=C(\C)CC/C=C(\C)CC/C=C(\C)CC/C=C(\C)CC/C=C(\C)CC/C=C(\C)CCC=C(C)C)=C(C)C1=O [UBIDECARENONE] | – | – | – | no drug-induced liver injury reported | drug-induced liver injury reported | no drug-induced liver injury reported
24 | O=C([O-])c1c(Cl)c(Cl)c(Cl)c(Cl)c1-c1c2cc(I)c(=O)c(I)c-2oc2c(I)c([O-])c(I)cc12.[Na+].[Na+] [ROSE BENGAL SODIUM] | – | – | – | no drug-induced liver injury reported | drug-induced liver injury reported | no drug-induced liver injury reported
25 | CCCCCCCCCCCCCCCCOP(=O)([O-])OCC[N+](C)(C)C [MILTEFOSINE] | – | – | – | drug-induced liver injury reported | no drug-induced liver injury reported | no drug-induced liver injury reported
26 | C[C@H](NC(=O)C(=O)Nc1ccccc1C(C)(C)C)C(=O)N[C@@H](CC(=O)O)C(=O)COc1c(F)c(F)cc(F)c1F | – | – | – | no drug-induced liver injury reported | drug-induced liver injury reported | no drug-induced liver injury reported
27 | CCC1(c2ccccc2)C(=O)NC(=O)NC1=O [PHENOBARBITAL] | – | – | – | drug-induced liver injury reported | drug-induced liver injury reported | drug-induced liver injury reported
28 | NC(=O)OCC(COC(N)=O)c1ccccc1 [FELBAMATE] | – | – | – | drug-induced liver injury reported | drug-induced liver injury reported | no drug-induced liver injury reported
29 | C[C@]12COC(=O)C[C@@H]1CC[C@@H]1[C@@H]2CC[C@@]2(C)[C@H]1CC[C@]2(C)O [OXANDROLONE] | – | – | – | no drug-induced liver injury reported | drug-induced liver injury reported | no drug-induced liver injury reported
30 | NC(=O)c1ncn([C@@H]2O[C@H](CO)[C@@H](O)[C@H]2O)n1 [RIBAVIRIN] | – | – | – | drug-induced liver injury reported | drug-induced liver injury reported | no drug-induced liver injury reported
31 | CN(C)CCOC(=O)COc1ccc(Cl)cc1 [MECLOFENOXATE] | – | – | – | no drug-induced liver injury reported | drug-induced liver injury reported | no drug-induced liver injury reported
32 | NCCc1ccc(O)c(O)c1 [DOPAMINE] | drug-induced liver injury reported | drug-induced liver injury reported | drug-induced liver injury reported | – | – | –
33 | Nc1ncn([C@H]2C[C@H](O)[C@@H](CO)O2)c(=O)n1 [DECITABINE] | – | – | – | drug-induced liver injury reported | no drug-induced liver injury reported | no drug-induced liver injury reported
34 | CC(C)C[C@H]1C(=O)N2CCC[C@H]2[C@]2(O)O[C@](NC(=O)[C@@H]3C=C4c5cccc6[nH]c(Br)c(c56)C[C@H]4N(C)C3)(C(C)C)C(=O)N12 [BROMOCRIPTINE] | – | – | – | no drug-induced liver injury reported | drug-induced liver injury reported | no drug-induced liver injury reported
35 | CN(C)C(=O)Oc1cccc([N+](C)(C)C)c1.[Br-] [NEOSTIGMINE BROMIDE] | – | – | – | no drug-induced liver injury reported | drug-induced liver injury reported | no drug-induced liver injury reported
